Values after ≈ are worked out from the molar mass of the structure shown.
What was measured:
Assay type in all cases: functional
[1] = test system: Mycobacterium tuberculosis; test: Antimycobacterial activity against Mycobacterium tuberculosis MTCC 300 assessed as growth inhibition after 24 hr by agar well diffusion method; conditions: MTCC 300, 24 h
[2] = test system: Mycobacterium tuberculosis; test: Antimycobacterial activity against Mycobacterium tuberculosis MTCC 300 assessed as growth inhibition at 1 mg/ml after 24 hr by agar well diffusion method; conditions: MTCC 300, 24 h, read-out: DIZ
Mycolicibacterium phlei [3] = test: Antimycobacterial activity against Mycobacterium phlei NCIM 2240 assessed as growth inhibition at 0.1 mg/ml after 24 hr by agar well diffusion method; conditions: NCIM 2240, 24 h, read-out: DIZ
[4] = test system: Mycolicibacterium smegmatis; test: Antimycobacterial activity against Mycobacterium smegmatis NCIM 5138 assessed as growth inhibition at 0.5 mg/ml after 24 hr by agar well diffusion method; conditions: NCIM 5138, 24 h, read-out: DIZ
Mycolicibacterium phlei [5] = test: Antimycobacterial activity against Mycobacterium phlei NCIM 2240 assessed as growth inhibition at 1 mg/ml after 24 hr by agar well diffusion method; conditions: NCIM 2240, 24 h, read-out: DIZ
[6] = test system: Mycolicibacterium smegmatis; test: Antimycobacterial activity against Mycobacterium smegmatis NCIM 5138 assessed as growth inhibition after 24 hr by agar well diffusion method; conditions: NCIM 5138, 24 h
Mycolicibacterium phlei [7] = test: Antimycobacterial activity against Mycobacterium phlei NCIM 2240 assessed as growth inhibition at 0.5 mg/ml after 24 hr by agar well diffusion method; conditions: NCIM 2240, 24 h, read-out: DIZ
[8] = test system: Mycolicibacterium smegmatis; test: Antimycobacterial activity against Mycobacterium smegmatis NCIM 5138 assessed as growth inhibition at 1 mg/ml after 24 hr by agar well diffusion method; conditions: NCIM 5138, 24 h, read-out: DIZ
Mycolicibacterium phlei [9] = test: Antimycobacterial activity against Mycobacterium phlei NCIM 2240 assessed as growth inhibition after 24 hr by agar well diffusion method; conditions: NCIM 2240, 24 h
[10] = test system: Mycolicibacterium smegmatis; test: Antimycobacterial activity against Mycobacterium smegmatis NCIM 5138 assessed as growth inhibition at 0.1 mg/ml after 24 hr by agar well diffusion method; conditions: NCIM 5138, 24 h, read-out: DIZ
[11] = test system: Mycobacterium tuberculosis; test: Antimycobacterial activity against Mycobacterium tuberculosis MTCC 300 assessed as growth inhibition at 0.5 mg/ml after 24 hr by agar well diffusion method; conditions: MTCC 300, 24 h, read-out: DIZ
[12] = test system: Mycobacterium tuberculosis; test: Antimycobacterial activity against Mycobacterium tuberculosis MTCC 300 assessed as growth inhibition at 0.1 mg/ml after 24 hr by agar well diffusion method; conditions: MTCC 300, 24 h, read-out: DIZ

Row | SMILES | MIC [1] | zone of inhibition at 1000 µg/mL [2] | zone of inhibition at 100 µg/mL (Mycolicibacterium phlei [3]) | zone of inhibition at 500 µg/mL [4] | zone of inhibition at 1000 µg/mL (Mycolicibacterium phlei [5]) | MIC [6] | zone of inhibition at 500 µg/mL (Mycolicibacterium phlei [7]) | zone of inhibition at 1000 µg/mL [8] | MIC (Mycolicibacterium phlei [9]) | zone of inhibition at 100 µg/mL [10] | zone of inhibition at 500 µg/mL [11] | zone of inhibition at 100 µg/mL [12]
1 | Cc1nn(-c2ccccc2)c2c1C(c1cn(-c3ccccc3)nc1-c1ccc(Cl)cc1)C1=C(NC(C)(c3ccc(O)c(Cl)c3O)NC1=O)O2 (stereo not given) | 1000 µg/mL (≈ 1450 µM) | 1.5 mm | 2.5 mm | 5.2 mm | 6.5 mm | 70 µg/mL (≈ 101 µM) | 4 mm | 6.8 mm | 90 µg/mL (≈ 130 µM) | 3.8 mm |  | 
2 | Cc1nn(-c2ccccc2)c2c1C(c1cn(-c3ccccc3)nc1-c1ccc(Cl)cc1)C1=C(NC(C)(c3cc(Cl)cc(I)c3O)NC1=O)O2 (stereo not given) |  |  |  | 5 mm | 2.8 mm | 70 µg/mL (≈ 87.3 µM) | 1.5 mm | 5.4 mm | 50 µg/mL (≈ 62.4 µM) | 4.2 mm |  | 
3 | Cc1nn(-c2ccccc2)c2c1C(c1cn(-c3ccccc3)nc1-c1ccc(F)cc1)C1=C(NC(C)(c3cc(Cl)ccc3O)NC1=O)O2 (stereo not given) |  |  |  | 2.2 mm |  | 100 µg/mL (≈ 152 µM) |  | 3.2 mm |  | 1.9 mm |  | 
4 | Cc1nn(-c2ccccc2)c2c1C(c1cn(-c3ccccc3)nc1-c1ccc(F)cc1)C1=C(NC(C)(c3ccc(O)cc3O)NC1=O)O2 (stereo not given) |  |  |  | 5.5 mm | 2.2 mm | 40 µg/mL (≈ 62.4 µM) | 1.5 mm | 6.5 mm | 50 µg/mL (≈ 78 µM) | 4.1 mm |  | 
5 | Cc1nn(-c2ccccc2)c2c1C(c1cn(-c3ccccc3)nc1-c1ccc(F)cc1)C1=C(NC(C)(c3ccc(O)c(Cl)c3O)NC1=O)O2 (stereo not given) | 1000 µg/mL (≈ 1480 µM) | 2 mm | 3.4 mm | 7.6 mm | 2.5 mm | 70 µg/mL (≈ 104 µM) | 1.5 mm | 11.5 mm | 50 µg/mL (≈ 74.1 µM) | 4.5 mm |  | 
6 | Cc1nn(-c2ccccc2)c2c1C(c1cn(-c3ccccc3)nc1-c1ccc(F)cc1)C1=C(NC(C)(c3cc(Cl)cc(I)c3O)NC1=O)O2 (stereo not given) |  |  | 5.8 mm | 9 mm | 8.6 mm | 60 µg/mL (≈ 76.4 µM) | 7.1 mm | 12 mm | 60 µg/mL (≈ 76.4 µM) | 5.6 mm |  | 
7 | COc1ccc(-c2nn(-c3ccccc3)cc2C2C3=C(NC(C)(c4cc(Cl)ccc4O)NC3=O)Oc3c2c(C)nn3-c2ccccc2)cc1 (stereo not given) |  |  |  | 4.2 mm | 2 mm | 90 µg/mL (≈ 134 µM) |  | 5.2 mm | 1000 µg/mL (≈ 1490 µM) | 2.8 mm |  | 
8 | COc1ccc(-c2nn(-c3ccccc3)cc2C2C3=C(NC(C)(c4cc(Cl)cc(I)c4O)NC3=O)Oc3c2c(C)nn3-c2ccccc2)cc1 (stereo not given) | 100 µg/mL (≈ 125 µM) | 3.6 mm | 4 mm | 10.8 mm | 8.8 mm | 50 µg/mL (≈ 62.7 µM) | 6.2 mm | 12 mm | 70 µg/mL (≈ 87.8 µM) | 8 mm | 2.5 mm | 2 mm
9 | Cc1nn(-c2ccccc2)c2c1C(c1cn(-c3ccccc3)nc1-c1ccc(Cl)cc1)C1=C(NC(C)(c3cc(Cl)ccc3O)NC1=O)O2 (stereo not given) | 1000 µg/mL (≈ 1480 µM) | 1.9 mm | 2 mm | 2.3 mm | 3.5 mm | 100 µg/mL (≈ 148 µM) | 2.4 mm | 3.6 mm | 100 µg/mL (≈ 148 µM) | 1.5 mm |  | 
10 | Cc1nn(-c2ccccc2)c2c1C(c1cn(-c3ccccc3)nc1-c1ccc(Cl)cc1)C1=C(NC(C)(c3ccc(O)cc3O)NC1=O)O2 (stereo not given) |  |  | 2.5 mm | 1.9 mm | 4.5 mm | 100 µg/mL (≈ 152 µM) | 3.8 mm | 3.2 mm | 70 µg/mL (≈ 107 µM) | 1.6 mm |  | 
11 | CO[C@H]1/C=C/O[C@@]2(C)Oc3c(C)c(O)c4c(O)c(c(/C=N/N5CCN(C)CC5)c(O)c4c3C2=O)NC(=O)/C(C)=C\C=C\[C@H](C)[C@H](O)[C@@H](C)[C@@H](O)[C@@H](C)[C@H](OC(C)=O)[C@@H]1C [RIFAMPIN] | 280 µg/mL (≈ 340 µM) |  |  |  |  | 480 µg/mL (≈ 583 µM) |  |  | 40 µg/mL (≈ 48.6 µM) |  |  | 
